Data reported in patent US20240391936A1, “TETRAHYDROTHIENO PYRIDINE DERIVATIVES AS DDRS INHIBITORS” (CHIESI FARMACEUTICI S.P.A., priority 2021, published 2024).

Columns and labels:
DDR2 [1] = molecular target: T1, DDR2 (Homo sapiens, UniProt Q16832); assay: DDR2 binding assay (LanthaScreen Europium Kinase Binding assay); design: purchased Life Technologies; conditions: binding assay, 5 nM DDR2, 10 nM Kinase Tracer 178; Ki from IC50 by Cheng-Prusoff; read-out: Ki DDR2
T1 sequence (Q16832 22-855): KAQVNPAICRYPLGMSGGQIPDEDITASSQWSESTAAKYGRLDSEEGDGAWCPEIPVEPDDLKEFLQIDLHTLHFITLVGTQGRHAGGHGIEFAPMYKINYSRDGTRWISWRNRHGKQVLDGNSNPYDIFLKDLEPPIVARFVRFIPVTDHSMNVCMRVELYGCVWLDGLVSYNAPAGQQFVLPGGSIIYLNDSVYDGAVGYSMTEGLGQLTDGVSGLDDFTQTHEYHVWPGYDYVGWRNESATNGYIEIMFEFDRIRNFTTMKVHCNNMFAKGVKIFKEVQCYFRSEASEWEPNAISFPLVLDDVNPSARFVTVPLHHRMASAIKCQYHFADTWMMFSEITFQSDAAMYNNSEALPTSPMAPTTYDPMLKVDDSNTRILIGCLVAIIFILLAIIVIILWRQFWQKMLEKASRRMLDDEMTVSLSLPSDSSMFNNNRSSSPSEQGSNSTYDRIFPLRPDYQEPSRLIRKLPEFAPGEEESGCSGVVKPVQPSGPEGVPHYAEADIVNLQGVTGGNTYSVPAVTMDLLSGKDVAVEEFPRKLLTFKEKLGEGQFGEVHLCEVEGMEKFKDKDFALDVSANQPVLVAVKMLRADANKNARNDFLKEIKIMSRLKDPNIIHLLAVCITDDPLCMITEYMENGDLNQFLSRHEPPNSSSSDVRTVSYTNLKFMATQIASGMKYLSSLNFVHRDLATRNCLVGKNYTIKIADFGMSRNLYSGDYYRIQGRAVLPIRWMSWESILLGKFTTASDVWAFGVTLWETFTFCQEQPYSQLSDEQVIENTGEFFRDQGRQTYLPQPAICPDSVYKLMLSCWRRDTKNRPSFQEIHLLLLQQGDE
How it was run: (§1)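 TR-FRET tracer-displacement format: 665/615 nm emission ratio (340 nm excitation) gave IC50 by 4-parameter fit, then Ki via Cheng-Prusoff. Each kinase at 5 nM with 2 nM Eu-anti-GST antibody and Tracer 178 (DDR1 20 nM, DDR2 10 nM), 1 h, room temperature, HEPES pH 7.5 buffer.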

DDR1 [2] = molecular target: T2, DDR1 (Homo sapiens, UniProt Q08345); assay: DDR1 cell based assay (PathHunter U2OS DDR1 assay); design: host or cells: U2OS-DDR1 (PathHunter); conditions: U2OS-DDR1 cells, bovine Type II Collagen 20 μg/ml
T2 sequence (Q08345 19-913): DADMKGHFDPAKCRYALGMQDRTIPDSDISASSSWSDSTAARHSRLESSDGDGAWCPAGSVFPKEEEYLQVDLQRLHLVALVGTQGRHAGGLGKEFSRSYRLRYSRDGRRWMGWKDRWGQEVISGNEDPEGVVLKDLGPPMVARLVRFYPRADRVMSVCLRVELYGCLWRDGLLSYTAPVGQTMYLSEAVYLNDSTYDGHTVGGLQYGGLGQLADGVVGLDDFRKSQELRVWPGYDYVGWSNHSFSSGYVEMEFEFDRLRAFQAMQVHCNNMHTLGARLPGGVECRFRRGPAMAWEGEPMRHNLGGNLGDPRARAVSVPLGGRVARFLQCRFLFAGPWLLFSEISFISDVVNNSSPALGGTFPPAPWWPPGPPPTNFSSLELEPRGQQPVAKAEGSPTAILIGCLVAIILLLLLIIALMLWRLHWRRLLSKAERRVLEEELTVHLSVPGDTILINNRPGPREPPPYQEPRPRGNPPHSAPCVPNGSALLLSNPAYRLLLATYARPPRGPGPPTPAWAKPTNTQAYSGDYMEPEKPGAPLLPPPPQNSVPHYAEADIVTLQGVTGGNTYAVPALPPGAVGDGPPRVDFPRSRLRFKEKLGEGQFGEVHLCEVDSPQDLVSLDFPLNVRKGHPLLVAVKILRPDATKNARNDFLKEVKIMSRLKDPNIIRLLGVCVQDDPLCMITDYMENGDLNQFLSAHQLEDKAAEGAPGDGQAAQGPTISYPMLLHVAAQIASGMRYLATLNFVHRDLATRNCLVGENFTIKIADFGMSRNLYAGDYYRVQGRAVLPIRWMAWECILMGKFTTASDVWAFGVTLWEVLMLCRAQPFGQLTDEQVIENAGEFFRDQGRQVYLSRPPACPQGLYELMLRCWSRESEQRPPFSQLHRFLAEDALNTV
How it was run: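 Receptor activation measured by enzyme-fragment complementation luminescence in engineered U2OS cells. Compound added 30 min before overnight challenge with 20 μg/ml bovine collagen II; data scaled between vehicle and collagen-stimulated controls, IC50 derived by four-parameter variable-slope fitting.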

DDR2 [3] = molecular target: T1, DDR2; assay: DDR2 cell based assay (phospho-ELISA in HEK293T-DDR2 recombinant cells); design: expressed in transfected cells; host or cells: HEK293T-DDR2 recombinant cells; conditions: bovine Type II Collagen 50 μg/ml
How it was run: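 HEK293T-DDR2 cells, serum-starved 3 h, treated with compounds 30 min before 3 h stimulation with bovine type II collagen at 50 μg/ml. Lysate phospho-DDR2 measured by ELISA, normalized to maximal-inhibition and collagen II (20 μg/ml) controls; IC50 from variable-slope sigmoidal fit.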

DDR1 [4] = molecular target: T2, DDR1; assay: DDR1 binding assay (LanthaScreen Europium Kinase Binding assay); design: purchased Carna Biosciences; conditions: binding assay, 5 nM DDR1, 20 nM Kinase Tracer 178; Ki from IC50 by Cheng-Prusoff; read-out: Ki DDR1
How it was run: as §1

| SMILES | Ki (DDR2 [1]) [µM] | IC50 (DDR1 [2]) [µM] | IC50 (DDR2 [3]) [µM] | Ki (DDR1 [4]) [µM] |
| --- | --- | --- | --- | --- |
| Cn1nc(C(C)(C)C)cc1NC(=O)c1csc2c1CCN(C(=O)c1cnc3ccccn13)C2 [Example 3, N-(3-(tert-butyl)-1-methyl-1H-pyrazol-5-yl)-6-(imidazo[1,2-a]pyridine-3-carbonyl)-4,5,6,7-tetrahydrothieno[2,3-c]pyridine-3-carboxamide] | < 0.025 | < 0.025 | < 0.025 | < 0.025 |
| O=C(Nc1cccc(C(F)(F)F)c1)c1csc2c1CCN(Cc1cnc3[nH]ccc3c1)C2 [Example 69, 6-((1H-pyrrolo[2,3-b]pyridin-5-yl)methyl)-N-(3-(trifluoromethyl)phenyl)-4,5,6,7-tetrahydrothieno[2,3-c]pyridine-3-carboxamide] | < 0.025 | < 0.025 | 0.025 to 0.05 | < 0.025 |
| Cc1n[nH]c2ncc(CN3CCc4c(C(=O)Nc5cc(C(C)(C)C)nn5C)csc4C3)cc12 [Example 78, N-(3-(tert-butyl)-1-methyl-1H-pyrazol-5-yl)-6-((3-methyl-1H-pyrazolo[3,4-b]pyridin-5-yl)methyl)-4,5,6,7-tetrahydrothieno[2,3-c]pyridine-3-carboxamide] | < 0.025 | < 0.025 | < 0.025 | < 0.025 |
| CN(C)[C@@H]1CCN(Cc2cc(NC(=O)c3csc4c3CCN(Cc3cnc5[nH]ncc5c3)C4)cc(C(F)(F)F)c2)C1 [Example 158, (R)-6-((1H-pyrazolo[3,4-b]pyridin-5-yl)methyl)-N-(3-((3-(dimethylamino)pyrrolidin-1-yl)methyl)-5-(trifluoromethyl)phenyl)-4,5,6,7-tetrahydrothieno[2,3-c]pyridine-3-carboxamide] | < 0.025 | < 0.025 | 0.025 to 0.05 | < 0.025 |

The next lines start with the values.

| Ki (DDR2 [1]) [µM] | IC50 (DDR1 [2]) [µM] | IC50 (DDR2 [3]) [µM] | Ki (DDR1 [4]) [µM] | SMILES |
| --- | --- | --- | --- | --- |
| < 0.025 | < 0.025 | < 0.025 | < 0.025 | O=C(Nc1cncc(C(F)(F)F)c1)c1csc2c1CCN(Cc1cnc3cnccn13)C2 [Example 153, 6-(imidazo[1,2-a]pyrazin-3-ylmethyl)-N-(5-(trifluoromethyl)pyridin-3-yl)-4,5,6,7-tetrahydrothieno[2,3-c]pyridine-3-carboxamide] |
| < 0.025 | < 0.025 | 0.025 to 0.05 | < 0.025 | N#Cc1cc(NC(=O)c2csc3c2CCN(C(=O)c2cnn4ccncc24)C3)cc(C(F)(F)F)c1 [Example 184, N-(3-cyano-5-(trifluoromethyl)phenyl)-6-(pyrazolo[1,5-a]pyrazine-3-carbonyl)-4,5,6,7-tetrahydrothieno[2,3-c]pyridine-3-carboxamide] |
| < 0.025 | < 0.025 | < 0.025 | < 0.025 | O=C(Nc1cccc(C(F)(F)F)c1)c1csc2c1CCN(C(=O)c1cnc3cnccn13)C2 [Example 90, 6-(imidazo[1,2-a]pyrazine-3-carbonyl)-N-(3-(trifluoromethyl)phenyl)-4,5,6,7-tetrahydrothieno[2,3-c]pyridine-3-carboxamide] |
| < 0.025 | < 0.025 | < 0.025 | < 0.025 | Cc1cn(-c2cc(NC(=O)c3csc4c3CCN(C(=O)c3cnc5ccccn35)C4)cc(C(F)(F)F)c2)cn1 [Example 74, 6-(imidazo[1,2-a]pyridine-3-carbonyl)-N-(3-(4-methyl-1H-imidazol-1-yl)-5-(trifluoromethyl)phenyl)-4,5,6,7-tetrahydrothieno[2,3-c]pyridine-3-carboxamide] |
| < 0.025 | < 0.025 | 0.025 to 0.05 | < 0.025 | O=C(Nc1cc(OCCN2CCOCC2)cc(C(F)(F)F)c1)c1csc2c1CCN(C(=O)c1cnc3ccccn13)C2 [Example 24, 6-(imidazo[1,2-a]pyridine-3-carbonyl)-N-(3-(2-morpholinoethoxy)-5-(trifluoromethyl)phenyl)-4,5,6,7-tetrahydrothieno[2,3-c]pyridine-3-carboxamide] |
